Legend:
[1] = target: T1, AChE (Homo sapiens, UniProt P22303); assay: biochemical; details: mean ± SD of three independent experiments
T1 construct: purchased BioLegend (via Biocom Africa (Pty) Ltd.)
Procedure: The melting point values of the test compounds were recorded on a Thermocouple digital melting point apparatus (Mettler Toledo LLC, Columbus, OH, USA). The infrared (IR) spectra were recorded using the thin-film method on a Bruker VERTEX 70 FT-IR Spectrometer (Bruker Optics, Billerica, MA, USA) equipped with an ATR (diamond attenuated total reflectance) accessory. Merck kieselgel 60 (0.063–0.200 mm) (Merck KGaA, Frankfurt, Germany) was used as a stationary phase for column chromatography. The ^1H-NMR and ^13C-NMR spectra of the prepared compounds were obtained as deuterated dimethyl sulfoxide ((CD3)2SO) solutions using Agilent 500 MHz NMR spectrometer (Agilent Technologies, Oxford, UK) operating at 500 MHz and 125 MHz for ^1H and ^13C, respectively. The chemical shifts are quoted relative to tetramethylsilane (TMS) used as an internal reference standard (δ = 0.00 ppm) or a residual protonated solvent. The high-resolution mass spectra were recorded at an ionization potential of 70 eV using Micromass Autospec-TOF (double focusing high resolution) instrument (Waters Corp., Milford, MA, USA). The synthesis and analytical data for 2-amino-5-iodobenzamide (1) have been reported in our previous study. Recombinant human AChE (BioLegend) and BChE (Cloud-Clone Corp.) were purchased via Biocom Africa (Pty) Ltd. (Centurion, Pretoria, South Africa).
AChE and BChE were used to determine cholinesterase activities spectrophotometrically using […] as substrates, respectively, following a modification of the Ellman’s method, as described in our previous study, and the reactions were performed in triplicate at 37 °C in a 96-well plate. […] A multi-channel pipette was used for the addition of reagents to the wells.
To each well of a 96-well plate, 8.0 μL solution of the test compound, 2.0 μL of AChE (0.04 mg/mL), and 70 μL of Tris buffer (C4H11NO3, 50 mM, pH 7.7) were added sequentially. The assay mixture was pre-incubated for 30 min at room temperature, which was followed by the addition of 10 μL of 5,5′-dithiobis-(2-nitrobenzoic acid) (DTNB, 3 mM in Tris buffer, 50 mM, pH 7.7) and 10 μL of […] (AChI, 5 mM in tris buffer, 50 mM, pH 7.7) to each well to initiate the reaction. […] The average values obtained from the absorbance readings were used to determine the IC50 and standard deviation values using the Graph Pad Prism (version 5.0, GraphPad software Inc., San Diego, CA, USA).

[2] = Nitric oxide radical scavenging assay (Griess reaction); details: NO radical scavenging
Procedure: Nitric oxide was generated from sodium nitroprusside and measured by Griess’ reaction following the literature method. The experiment was done in triplicate with ascorbic acid (vitamin C) used as a positive control for the assay. In total, 50 μL of each of the test compounds and the positive control at various concentrations (0.1, 0.5, 1.0, 5.0, and 10.0 μM in methanol) were added to each designated well of the 96 well plate. A total of 50 μL of sodium nitroprusside (10 mM) prepared in saline phosphate buffer (pH = 7.4) was then added to each well and the reaction mixture incubated at room temperature for 3 h. Afterward, 300 μL of the Griess reagent (a mixture of 0.2% N-(1-naphthyl)ethylenediamine dihydrochloride and 2% sulfanilamide in […]) was added to each well and absorbance was read at 546 nm using a Varioskan flash microplate spectrophotometer reader.

[3] = target: T1, AChE; assay: Enzyme kinetic study against AChE (Lineweaver-Burk and Dixon plots); assay type: biochemical
Procedure: The AChE and BChE enzyme kinetic studies were performed in triplicate in a 96-well plate following a procedure described in our previous study. Varying concentrations of 2a or 3c (0, 2.5, 3.5, and 5 μM) and AChI or BChI (0.1, 0.5, 2.5, and 5 mM) were used for the kinetic assays. The absorbances were measured after every 1 s for 10 s at a wavelength of 412 nm using a microplate spectrophotometer reader. The Lineweaver–Burk plots (plot of the inverse of velocity (1/v) against the inverse of the substrate concentration (1/[S])) were constructed.

[4] = Cytotoxicity (MTT assay) on Vero cells; details: monkey, Vero cells (normal monkey kidney cells)
Procedure: (§1) The cytotoxicity activity of the compounds was evaluated using the 3-(4,5-dimethylthiazol-2-yl)-2,5-diphenyltetrazolium bromide (MTT) assay following a modification of a method by Mosmann. Normal monkey kidney cells (Vero cells) and adeno-carcinomic human epithelial cells (A549 cells) were maintained in Dulbecco’s modified Eagle’s medium (DMEM, Gibco) supplemented with 10% fetal bovine serum (FBS) and 1% penicillin/streptomycin in culture flasks and incubated at 37 °C in 5% CO2. […] Cells were seeded at 1 × 10^5 cells/well and incubated overnight to allow cell attachment. After 24 h, treatments were administered with different concentrations (0, 2.5, 5, 10, 25, 50, and 100 μM) of the compounds and doxorubicin (positive control). After 24 h of incubation, 20 μL of the MTT solution (5 mg/mL) was added in all the wells, which was followed by 4 h of incubation.

[5] = in vitro; details: human, A549 cells (adeno-carcinomic human epithelial cells)
Procedure: as §1

[6] = test system: A549 cells; assay: LPS-induced ROS production in A549 cells (H2DCF-DA); assay type: cell-based, human; details: 10 μM compound, LPS 1 μg/mL, 24 h (Figure 9b)
Procedure: Mitochondrial ROS levels in Vero and A549 cell lines was measured using the 2′,7′-dichlorofluorescin diacetate (H2DCF-DA) (Sigma-Aldrich, St. Louis, MO, USA, Merck, Darmstadt, Germany), fluorescent probe. Cells (1 × 10^5) were seeded in 96 well plates and incubated overnight at 37 °C in 5% CO2. A minimum non-toxic concentration (10 μM) of compounds (2a and 3b) was added separately as treatment and further incubated for an hour, after which LPS (1 μg/mL) was added to induce the production of ROS. After 24 h of incubation, the media was aspirated, cells were rinsed with PBS, and followed by the addition of H2DCF-DA (10 μM) for 30 min in the dark. The absorbance of the fluorescence was measured using a microplate reader (VarioSkan Flash, Thermo Fisher Scientific, Finland) at 485 and 535 nm values of excitation and emission, respectively. Data was processed and analysed using ANOVA, which was followed by Duncan’s multiple comparison test.

T1 sequence (P22303 32-614): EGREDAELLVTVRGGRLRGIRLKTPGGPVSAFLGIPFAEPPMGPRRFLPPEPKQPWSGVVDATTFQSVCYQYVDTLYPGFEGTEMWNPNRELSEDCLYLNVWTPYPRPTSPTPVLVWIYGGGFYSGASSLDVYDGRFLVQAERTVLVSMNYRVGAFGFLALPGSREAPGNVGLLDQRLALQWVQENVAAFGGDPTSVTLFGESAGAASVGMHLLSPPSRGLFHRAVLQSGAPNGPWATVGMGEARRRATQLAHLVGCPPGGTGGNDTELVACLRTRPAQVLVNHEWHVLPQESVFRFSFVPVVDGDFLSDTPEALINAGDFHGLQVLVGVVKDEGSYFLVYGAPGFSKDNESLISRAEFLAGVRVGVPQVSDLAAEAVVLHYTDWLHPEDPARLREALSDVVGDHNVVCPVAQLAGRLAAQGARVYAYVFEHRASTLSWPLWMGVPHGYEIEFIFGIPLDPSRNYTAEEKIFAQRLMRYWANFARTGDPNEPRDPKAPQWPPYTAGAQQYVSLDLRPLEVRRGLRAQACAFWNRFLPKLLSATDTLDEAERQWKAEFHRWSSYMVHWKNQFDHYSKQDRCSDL

NC(=O)c1cc(/C=C/c2ccccc2)ccc1N [Compound 2a, (E)-2-Amino-5-styrylbenzamide]
IC50 [1]: 2.3 ± 0.11 µM
IC50 [2]: 10.3 ± 0.12 µM
mode of inhibition AChE [3]: non-competitive
Ki ([3]; read-out: Ki (Dixon plot) AChE): 1.2 µM
IC50 at 24 h [4]: 163 ± 0.55 µM
IC50 at 24 h [5]: 35.4 ± 0.13 µM
ROS reduction [6]: about 65%

Source: article PMC8145986, “In Vitro Enzymatic and Kinetic Studies, and In Silico Drug-Receptor Interactions, and Drug-Like Profiling of the 5-Styrylbenzamide Derivatives as Potential Cholinesterase and β-Secretase Inhibitors with Antioxidant Properties” (Antioxidants, 2021)
